Data reported in PubChem BioAssay AID1963963 (Molecular Pharmacology Branch, DTP, NCI, 2024).

Tested on: 958667-338-R-J2-PDC tumor spheroids viability
Assay: Anticancer human tumor 958667-338-R-J2-PDC patient-derived colon adenocarcinoma cell line growth inhibition [PI3K]
Settings: spheroids with HUVEC and MSC; for IC50: curve of first compound; for viability, T/C: stronger effect = lower value; active means viability on the fitted dose curve at most 10% of control; inactive means the rest
In short: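 Stroma-containing spheroids: tumor line, pooled-donor HUVEC, hMSC. Treatments: targeted agents with PI3K inhibitors. Dosing: clinically relevant, half-log spacing, 10 microM ceiling without known Cmax. Read-out: cell viability.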

[1] = second compound 0.00316 µM, first compound 0.0316 µM
[2] = second compound 0.00316 µM, first compound 0.1 µM
[3] = second compound 0.01 µM, first compound 0.0316 µM
[4] = second compound 0.01 µM, first compound 0.1 µM
[5] = second compound 0.0316 µM, first compound 0.0316 µM
[6] = second compound 0.0316 µM, first compound 0.1 µM
[7] = second compound 0.1 µM, first compound 0.0316 µM
[8] = second compound 0.1 µM, first compound 0.1 µM
[9] = second compound 0.316 µM, first compound 0.0316 µM
[10] = second compound 0.316 µM, first compound 0.1 µM
[11] = second compound 1 µM, first compound 0.0316 µM
[12] = second compound 1 µM, first compound 0.1 µM
[13] = second compound 0.00316 µM, first compound 0.316 µM
[14] = second compound 0.00316 µM, first compound 1 µM
[15] = second compound 0.00316 µM, first compound 3.16 µM
[16] = second compound 0.00316 µM, first compound 10 µM
[17] = second compound 0.01 µM, first compound 0.316 µM
[18] = second compound 0.01 µM, first compound 1 µM
[19] = second compound 0.01 µM, first compound 3.16 µM
[20] = second compound 0.01 µM, first compound 10 µM
[21] = second compound 0.0316 µM, first compound 0.316 µM
[22] = second compound 0.0316 µM, first compound 1 µM
[23] = second compound 0.0316 µM, first compound 3.16 µM
[24] = second compound 0.0316 µM, first compound 10 µM
[25] = second compound 0.1 µM, first compound 0.316 µM
[26] = second compound 0.1 µM, first compound 1 µM
[27] = second compound 0.1 µM, first compound 3.16 µM
[28] = second compound 0.1 µM, first compound 10 µM
[29] = second compound 0.316 µM, first compound 0.316 µM
[30] = second compound 0.316 µM, first compound 1 µM
[31] = second compound 0.316 µM, first compound 3.16 µM
[32] = second compound 0.316 µM, first compound 10 µM
[33] = second compound 1 µM, first compound 0.316 µM
[34] = second compound 1 µM, first compound 1 µM
[35] = second compound 1 µM, first compound 3.16 µM
[36] = second compound 1 µM, first compound 10 µM
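Further: spheroids exposed to compounds for seven days before readout.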

CC(=O)c1c(C)c2cnc(Nc3ccc(N4CCNCC4)cn3)nc2n(C2CCCC2)c1=O + COc1c(OCCCN2CCOCC2)ccc2c3n(c(=NC(=O)c4cnc(N)nc4)nc12)CCN3
inactive: viability, T/C (second compound 0.00316 µM, first compound 0.000316 µM) 103% | viability, T/C (second compound 0.00316 µM, first compound 0.001 µM) 101% | viability, T/C (second compound 0.00316 µM, first compound 0.00316 µM) 97.2% | viability, T/C (second compound 0.00316 µM, first compound 0.01 µM) 98.2% | viability, T/C [1] 108% | viability, T/C [2] 62.8% | viability, T/C (second compound 0.01 µM, first compound 0.000316 µM) 82.9% | viability, T/C (second compound 0.01 µM, first compound 0.001 µM) 67.7% | viability, T/C (second compound 0.01 µM, first compound 0.00316 µM) 90.8% | viability, T/C (second compound 0.01 µM, first compound 0.01 µM) 79.1% | viability, T/C [3] 83.3% | viability, T/C [4] 69.9% | viability, T/C (second compound 0.0316 µM, first compound 0.000316 µM) 75.7% | viability, T/C (second compound 0.0316 µM, first compound 0.001 µM) 94.8% | viability, T/C (second compound 0.0316 µM, first compound 0.00316 µM) 75.5% | viability, T/C (second compound 0.0316 µM, first compound 0.01 µM) 56.7% | viability, T/C [5] 67.3% | viability, T/C [6] 56.3% | viability, T/C (second compound 0.1 µM, first compound 0.000316 µM) 64.9% | viability, T/C (second compound 0.1 µM, first compound 0.001 µM) 61.8% | viability, T/C (second compound 0.1 µM, first compound 0.00316 µM) 51.5% | viability, T/C (second compound 0.1 µM, first compound 0.01 µM) 70.2% | viability, T/C [7] 62.7% | viability, T/C [8] 50.7% | viability, T/C (second compound 0.316 µM, first compound 0.000316 µM) 37.2% | viability, T/C (second compound 0.316 µM, first compound 0.001 µM) 42.5% | viability, T/C (second compound 0.316 µM, first compound 0.00316 µM) 49.1% | viability, T/C (second compound 0.316 µM, first compound 0.01 µM) 42.9% | viability, T/C [9] 35% | viability, T/C [10] 26.6% | viability, T/C (second compound 1 µM, first compound 0.000316 µM) 17.8% | viability, T/C (second compound 1 µM, first compound 0.001 µM) 20.3% | viability, T/C (second compound 1 µM, first compound 0.00316 µM) 18% | viability, T/C (second compound 1 µM, first compound 0.01 µM) 20.3% | viability, T/C [11] 22.3% | viability, T/C [12] 17.2%
> 100 nM: IC50 (second compound 0.00316 µM) | IC50 (second compound 0.01 µM) | IC50 (second compound 0.0316 µM) | IC50 (second compound 0.1 µM)
< 0.316 nM: IC50 (second compound 0.316 µM) | IC50 (second compound 1 µM)

CC(C)NCC(C(=O)N1CCN(c2ncnc3c2C(C)CC3O)CC1)c1ccc(Cl)cc1 (stereo unspecified) + COc1c(OCCCN2CCOCC2)ccc2c3n(c(=NC(=O)c4cnc(N)nc4)nc12)CCN3
> 10000 nM: IC50 (second compound 0.00316 µM) | IC50 (second compound 0.01 µM) | IC50 (second compound 0.0316 µM)
< 31.6 nM: IC50 (second compound 0.316 µM) | IC50 (second compound 1 µM)
inactive: viability, T/C [1] 94.4% | viability, T/C [2] 88% | viability, T/C [13] 74% | viability, T/C [14] 95.7% | viability, T/C [15] 90.7% | viability, T/C [16] 60.2% | viability, T/C [3] 97.8% | viability, T/C [4] 73.9% | viability, T/C [17] 69% | viability, T/C [18] 100% | viability, T/C [19] 54.8% | viability, T/C [20] 66.2% | viability, T/C [5] 68.7% | viability, T/C [6] 69.3% | viability, T/C [21] 67.8% | viability, T/C [22] 77.7% | viability, T/C [23] 71.3% | viability, T/C [24] 50.6% | viability, T/C [7] 61.6% | viability, T/C [8] 43.2% | viability, T/C [25] 67.4% | viability, T/C [26] 60.5% | viability, T/C [27] 51.1% | viability, T/C [28] 37.4% | viability, T/C [9] 36.9% | viability, T/C [10] 35.3% | viability, T/C [29] 29.8% | viability, T/C [30] 38.1% | viability, T/C [31] 27.2% | viability, T/C [32] 23.1% | viability, T/C [11] 17.6% | viability, T/C [12] 18.7% | viability, T/C [33] 15.4% | viability, T/C [34] 19.5% | viability, T/C [35] 16.2% | viability, T/C [36] 14.8%
4020 nM: IC50 (second compound 0.1 µM)

C=CC(=O)N1CCN(c2nc(=O)n(-c3c(C)ccnc3C(C)C)c3nc(-c4c(O)cccc4F)c(F)cc23)C(C)C1 (stereo unspecified) + COc1c(OCCCN2CCOCC2)ccc2c3n(c(=NC(=O)c4cnc(N)nc4)nc12)CCN3
< 31.6 nM: IC50 (second compound 0.316 µM) | IC50 (second compound 1 µM)
inactive: viability, T/C [1] 97.1% | viability, T/C [2] 97.6% | viability, T/C [13] 88.8% | viability, T/C [14] 117% | viability, T/C [15] 103% | viability, T/C [16] 121% | viability, T/C [3] 103% | viability, T/C [4] 103% | viability, T/C [17] 87% | viability, T/C [18] 92.6% | viability, T/C [19] 107% | viability, T/C [20] 94% | viability, T/C [5] 82.1% | viability, T/C [6] 83% | viability, T/C [21] 71.8% | viability, T/C [22] 72.4% | viability, T/C [23] 78.2% | viability, T/C [24] 69.9% | viability, T/C [7] 61% | viability, T/C [8] 72.7% | viability, T/C [25] 52.9% | viability, T/C [26] 62.6% | viability, T/C [27] 72.4% | viability, T/C [28] 64.2% | viability, T/C [9] 36.3% | viability, T/C [10] 36% | viability, T/C [29] 44.4% | viability, T/C [30] 42% | viability, T/C [31] 47.3% | viability, T/C [32] 46.1% | viability, T/C [11] 22.6% | viability, T/C [12] 23.1% | viability, T/C [33] 18.8% | viability, T/C [34] 21.2% | viability, T/C [35] 25.3% | viability, T/C [36] 18.2%
> 10000 nM: IC50 (second compound 0.00316 µM) | IC50 (second compound 0.01 µM) | IC50 (second compound 0.0316 µM) | IC50 (second compound 0.1 µM)
